The source made the active and inactive calls. The calls are words filed in the database; no cut-off is given here.
How the values were obtained:
PC-12 [1] = experiment: Cytotoxicity against rat PC12 cells assessed as effect on cell viability at 20 uM measured after 24 hrs by CCK-8 assay; format: toxicity, cell-based; settings: pc-12, 24 h
PC-12 [2] = experiment: Neuroprotective activity against MPP+-induced rat PC12 cell death assessed as increase in cell viability preincubated for 1 hr followed by MPP+ addition and measured after 24 hrs by CCK-8 assay; format: functional, cell-based; settings: dose 1-20 µM, time 25.0 hrs
PC-12 [3] = experiment: Neuroprotective activity against MPP+-induced rat PC12 cell death assessed as cell viability at 20 uM preincubated for 1 hr followed by MPP+ addition and measured after 24 hrs by CCK-8 assay (reference value: 57%); format: functional; settings: time 25 hrs, read-out: Activity
PC-12 [4] = experiment: Neuroprotective activity against MPP+-induced rat PC12 cell death assessed as increase in cell viability at […] preincubated for 1 hr followed by MPP+ addition and measured after 24 hrs by CCK-8 assay; format: functional, cell-based; settings: time 25.0 hrs

Row | SMILES | Activity (PC-12 [1]) | Activity (PC-12 [2]) | viability at 20 µM (PC-12 [3]) [%] | Activity (PC-12 [4])
1 | CC/C=C/c1c(OC)cc(=O)oc1CO | Non-Toxic | – | – | –
2 | CC(=O)[C@H]1CC[C@H]2C3=CC(=O)[C@H]4C[C@H](O)CC[C@]4(C)[C@H]3[C@H](O)C[C@]12C | Non-Toxic | Dose-Dependent Effect | 69 | –
3 | CC(C)=CC[C@H](O)[C@@](C)(O)[C@@H](O)C/C=C(/C)[C@H](O)CO | Non-Toxic | – | – | –
4 | Cc1ccc([C@@H](C)[C@@H](C[C@@H](O)C(C)(C)O)O[C@@H]2OC[C@@H](O)[C@H](O)[C@H]2O)cc1 | Non-Toxic | – | – | –
5 | CCC[C@H](O[C@@H]1OC[C@@H](O)[C@H](O)[C@H]1O)c1c(OC)cc(=O)oc1C | Non-Toxic | – | – | –
6 | CC1=C[C@](C)(O)[C@H](C)O[C@H]1/C(C)=C/C=C/C=C/C=C/[C@@]1(C)C2OC(=O)C1(C)C(=O)C2C (some centres undefined) | Non-Toxic | – | – | –
7 | C=CC1(C)CC/C=C(/C)CCC(C(C)(C)O)O1 (centres undefined) [NEROPLOMACROL] | Non-Toxic | Dose-Dependent Effect | 69 | –
8 | CC1=C[C@@](C)(O)[C@H](C)O[C@H]1/C(C)=C/C=C/C=C/C=C/[C@@]1(C)C2OC(=O)C1(C)C(=O)C2C (some centres undefined) | Non-Toxic | – | – | –
9 | CC(=O)[C@H]1CC[C@H]2C3=C[C@H](O)[C@H]4C[C@H](O)CC[C@]4(C)[C@H]3[C@H](O)C[C@]12C | Non-Toxic | Dose-Dependent Effect | 68 | –
10 | CC(=O)[C@H]1CC[C@@]2(O)C3=CC(=O)[C@@H]4C[C@H](O)CC[C@]4(C)[C@H]3C[C@@H](O)[C@]12C | Non-Toxic | Dose-Dependent Effect | 72 | –
11 | C=C1CC[C@H]2[C@](C)(CO)CC[C@@H](O)[C@]2(C)[C@H]1CO | Non-Toxic | – | – | –
12 | C=CC(C)(O)C(O)CC(O)C(C)(O)CCC=C(C)C (centres undefined) | Non-Toxic | – | – | –
13 | CCC[C@H](O)c1c(OC)cc(=O)oc1C | Non-Toxic | – | – | –
14 | CC(CO)[C@@H]1CC[C@@](C)(O)[C@@H]2CCC(CO)=C[C@H]21 (some centres undefined) | Non-Toxic | Dose-Dependent Effect | 69 | Active
15 | C=C1CC[C@@H](C(C)(C)O)[C@@H]2C[C@H](C)[C@@H](O)C[C@@H]12 | Non-Toxic | Dose-Dependent Effect | 72 | –
16 | COc1cc(=O)oc(C)c1/C=C/CCOC(C)=O | Non-Toxic | – | – | –
